Measured values: ChEMBL document CHEMBL1649220, “New variant of CTX-M-type extended-spectrum beta-lactamases, CTX-M-71, with a Gly238Cys substitution in a Klebsiella pneumoniae isolate from Bulgaria” (2009)

What was measured:
[1] = molecular target: T1, Extended spectrum beta-lactamase CTX-M-71 (Klebsiella pneumoniae) (UniProt C8YUV9); experiment: Ratio of Kcat to Km for Klebsiella pneumoniae AH24-270 CTX-M-71 beta-lactamase; parameters: unit not given here
T1 sequence (whole entry): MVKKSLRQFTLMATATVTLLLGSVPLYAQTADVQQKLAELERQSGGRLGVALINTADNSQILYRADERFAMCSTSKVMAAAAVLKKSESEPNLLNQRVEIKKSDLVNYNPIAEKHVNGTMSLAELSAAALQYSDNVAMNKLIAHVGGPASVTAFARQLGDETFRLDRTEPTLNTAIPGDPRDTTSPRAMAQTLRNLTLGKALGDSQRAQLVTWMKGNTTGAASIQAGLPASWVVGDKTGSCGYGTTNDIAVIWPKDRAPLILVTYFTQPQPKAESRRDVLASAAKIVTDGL

[2] = molecular target: Beta-lactamase AH27 CTX-M-15 (Klebsiella pneumoniae) (UniProt Q2PUH3); experiment: Ratio of Kcat to Km for Klebsiella pneumoniae AH27 CTX-M-15 beta-lactamase; parameters: unit not given here

| Structure (SMILES) | Ratio [1] | Ratio [2] |
| --- | --- | --- |
| CO/N=C(\C(=O)N[C@@H]1C(=O)N2C(C(=O)O)=C(COC(N)=O)CS[C@H]12)c1ccco1 | 0.1 | 0.25 |
| CC(C)(O/N=C(\C(=O)N[C@@H]1C(=O)N2C(C(=O)[O-])=C(C[n+]3ccccc3)CS[C@H]12)c1csc(N)n1)C(=O)O | 0.0038 | 0.0186 |
| C[C@H]1[C@H](NC(=O)/C(=N\OC(C)(C)C(=O)O)c2csc(N)n2)C(=O)N1S(=O)(=O)O | 0.084 | – |
| CCN1CCN(C(=O)N[C@@H](C(=O)N[C@@H]2C(=O)N3[C@@H]2SC(C)(C)[C@@H]3C(=O)O)c2ccccc2)C(=O)C1=O | 8.4 | – |
| O=C(Cc1cccs1)N[C@@H]1C(=O)N2C(C(=O)[O-])=C(C[n+]3ccccc3)CS[C@H]12 | 3.8 | 4.82 |
| CC1(C)S[C@@H]2[C@H](NC(=O)Cc3ccccc3)C(=O)N2[C@H]1C(=O)O | 11.8 | 5.4 |
| CC1(C)S[C@@H]2[C@H](NC(=O)[C@H](N)c3ccc(O)cc3)C(=O)N2[C@H]1C(=O)O | 9.4 | – |
| CO/N=C(\C(=O)N[C@@H]1C(=O)N2C(C(=O)O)=C(COC(C)=O)CS[C@H]12)c1csc(N)n1 | 0.5 | 6.77 |
